This note sets out measurements from ChEMBL document CHEMBL5113452, “Synthesis and biological evaluation of hybrids from optically active ring-opened 3-N-butylphthalide derivatives and 4-fluro-edaravone as potential anti-acute ischemic stroke agents” (Bioorg Med Chem, 2022).

The subject of data set [1] is Rattus norvegicus. In words: Neuroprotective activity against transient middle cerebral artery occlusion induced ischemia stroke Sprague-Dawley rat model assessed as increase in neuro-fucntional score at 5.9 mg/kg, iv and measured after 24 hrs by longa's method. Format: functional, organism-based.
Data set [2] concerns Rattus norvegicus. The experiment in a line: Neuroprotective activity against transient middle cerebral artery occlusion induced ischemia stroke Sprague-Dawley rat model assessed as increase in neuro-fucntional score at 5.9 mg/kg, iv and measured after 24 hrs in presence of 4-F-Eda by longa's method. Format: functional, organism-based.
A short description of data set [3]: Toxicity in transient middle cerebral artery occlusion induced ischemia stroke Sprague-Dawley rat model assessed as change in body weight at 5.90 mg/kg, iv and measured after 24 hrs. Format: organism-based. The note with it: in vivo, 5.9 mg/kg.
Data set [4] can be described thus: Toxicity in transient middle cerebral artery occlusion induced ischemia stroke Sprague-Dawley rat model assessed as change in body weight at 5.90 mg/kg, iv and measured after 24 hrs in presence of 4-F-Eda. Format: organism-based. The note with it: in vivo, 5.9 mg/kg.
Data set [5] concerns Rattus norvegicus. In words: Neuroprotective activity against transient middle cerebral artery occlusion induced cerebral infraction Sprague-Dawley rat model assessed as decrease in cerebral infraction volume at 5.9 mg/kg, iv and measured after 24 hrs by TTC staining based assay. Format: functional. On the set-up: scale not given: the % may be the effect or the level left.
Data set [6] has as its system Rattus norvegicus. The experiment in a line: Neuroprotective activity against transient middle cerebral artery occlusion induced cerebral infraction Sprague-Dawley rat model assessed as decrease in cerebral infraction volume at 5.9 mg/kg, iv and measured after 24 hrs in presence of 4-F-Eda by TTC staining based assay. Format: functional. Also on record: scale not given: the % may be the effect or the level left.

Data set [7] has as its system Rattus norvegicus. In words: Neuroprotective activity against transient middle cerebral artery occlusion induced cerebral infraction Sprague-Dawley rat model assessed as decrease in brain edema at 5.9 mg/kg, iv and measured after 24 hrs in presence of 4-F-Eda. Format: functional, organism-based.
In data set [8] the test system is Rattus norvegicus. The experiment in a line: Neuroprotective activity against transient middle cerebral artery occlusion induced ischemia stroke Sprague-Dawley rat model assessed as increase in neuro-fucntional score at 10 mg/kg, iv and measured after 24 hrs by longa's method. Format: functional, organism-based.
Data set [9] in a line: Toxicity in transient middle cerebral artery occlusion induced ischemia stroke Sprague-Dawley rat model assessed as change in body weight at 10 mg/kg, iv and measured after 24 hrs. Format: organism-based. Particulars: in vivo.
For data set [10], the system named is Rattus norvegicus. The experiment in a line: Neuroprotective activity against transient middle cerebral artery occlusion induced cerebral infraction Sprague-Dawley rat model assessed as decrease in cerebral infraction volume at 10 mg/kg, iv and measured after 24 hrs by TTC staining based assay. Format: functional. Also on record: scale not given: the % may be the effect or the level left.

In data set [11] the test system is Rattus norvegicus. In words: Neuroprotective activity against transient middle cerebral artery occlusion induced cerebral ischemia Sprague-Dawley rat model assessed as decrease in infract volume at 70 mg/kg, po and measured after 24 hrs by TTC staining based assay. On the set-up: scale not given: the % may be the effect or the level left. Format: functional.
The test system of data set [12] is Rattus norvegicus. In words: Neuroprotective activity against transient middle cerebral artery occlusion induced cerebral ischemia Sprague-Dawley rat model assessed as decrease in infract volume at 140 mg/kg, po and measured after 24 hrs by TTC staining based assay. Format: functional. On the set-up: scale not given: the % may be the effect or the level left.

For data set [13], the system named is Rattus norvegicus. The experiment in a line: Neuroprotective activity against transient middle cerebral artery occlusion induced cerebral infraction Sprague-Dawley rat model assessed as decrease in brain edema at 10 mg/kg, iv and measured after 24 hrs. Format: functional.
The test system of data set [14] is Rattus norvegicus. The experiment in a line: Neuroprotective activity against transient middle cerebral artery occlusion induced ischemia stroke Sprague-Dawley rat model assessed as increase in neuro-fucntional score at 4.48 mg/kg, iv and measured after 24 hrs in presence of Eda by longa's method. Format: functional, organism-based.
Data set [15] is described as follows: Toxicity in transient middle cerebral artery occlusion induced ischemia stroke Sprague-Dawley rat model assessed as change in body weight at 4.48 mg/kg, iv and measured after 24 hrs in presence of EDA. Format: organism-based. Particulars: in vivo.
Data set [16] has as its system Rattus norvegicus. In words: Neuroprotective activity against transient middle cerebral artery occlusion induced cerebral infraction Sprague-Dawley rat model assessed as decrease in cerebral infraction volume at 4.48 mg/kg, iv and measured after 24 hrs in presence of EDA by TTC staining based assay. Format: functional. On the set-up: scale not given: the % may be the effect or the level left.

In data set [17] the test system is Rattus norvegicus. The experiment in a line: Neuroprotective activity against transient middle cerebral artery occlusion induced cerebral infraction Sprague-Dawley rat model assessed as decrease in brain edema at 4.48 mg/kg, iv and measured after 24 hrs in presence of EDA. Format: functional, organism-based.
A short description of data set [18]: Elimination rate constant in Sprague-Dawley rat plasma at 4.48 mg/kg, iv and measured upto 24 hrs by LC-MS/MS analysis. Format: ADME, organism-based.
The nature of data set [19]: Half life in Sprague-Dawley rat plasma at 4.48 mg/kg, iv and measured upto 24 hrs by LC-MS/MS analysis. Format: ADME, organism-based.
Data set [20] is described as follows: Cmax in Sprague-Dawley rat plasma at 4.48 mg/kg, iv and measured upto 24 hrs by LC-MS/MS analysis. Format: ADME, organism-based. On the set-up: dose 4.48 mg/kg, time < 24 hrs, route iv.
The nature of data set [21]: C0 in Sprague-Dawley rat plasma at 4.48 mg/kg, iv and measured upto 24 hrs by LC-MS/MS analysis. Format: ADME, organism-based.
Data set [22] can be described thus: AUC (0-t) in Sprague-Dawley rat plasma at 4.48 mg/kg, iv and measured upto 24 hrs by LC-MS/MS analysis. Format: ADME, organism-based. Also on record: time < 24 hrs, dose 4.48 mg/kg, route iv.
Data set [23] is described as follows: AUC (0-infinity) in Sprague-Dawley rat plasma at 4.48 mg/kg, iv and measured upto 24 hrs by LC-MS/MS analysis. Format: ADME, organism-based. Also on record: time < 24 hrs, dose 4.48 mg/kg, route iv.
The nature of data set [24]: AUMC (0-t) in Sprague-Dawley rat plasma at 4.48 mg/kg, iv and measured upto 24 hrs by LC-MS/MS analysis. The note with it: in vivo. Format: ADME, organism-based.
Data set [25] is described as follows: AUMC (0-infinity) in Sprague-Dawley rat plasma at 4.48 mg/kg, iv and measured upto 24 hrs by LC-MS/MS analysis. Format: ADME, organism-based. Particulars: in vivo.
The nature of data set [26]: Clearance in Sprague-Dawley rat plasma at 4.48 mg/kg, iv and measured upto 24 hrs by LC-MS/MS analysis. Format: ADME, organism-based.
Data set [27] in a line: MRT in Sprague-Dawley rat plasma at 4.48 mg/kg, iv and measured upto 24 hrs by LC-MS/MS analysis. Format: ADME, organism-based.
The nature of data set [28]: Volume of distribution at steady state in Sprague-Dawley rat plasma at 4.48 mg/kg, iv and measured upto 24 hrs by LC-MS/MS analysis. Format: ADME, organism-based. Particulars: read-out: Vdss.
A short description of data set [29]: Elimination rate constant in Sprague-Dawley rat plasma at 4.48 mg/kg, iv and measured upto 24 hrs in presence of 4-F-Eda by LC-MS/MS analysis. Format: ADME, organism-based.
Data set [30] is described as follows: Half life in Sprague-Dawley rat plasma at 4.48 mg/kg, iv and measured upto 24 hrs in presence of 4-F-Eda by LC-MS/MS analysis. Format: ADME, organism-based.
Data set [31] is described as follows: Cmax in Sprague-Dawley rat plasma at 4.48 mg/kg, iv and measured upto 24 hrs in presence of 4-F-Eda by LC-MS/MS analysis. Format: ADME, organism-based. On the set-up: time < 24 hrs, dose 4.48 mg/kg, route iv.
Data set [32] is described as follows: C0 in Sprague-Dawley rat plasma at 4.48 mg/kg, iv and measured upto 24 hrs in presence of 4-F-Eda by LC-MS/MS analysis. Format: ADME, organism-based.
Data set [33] can be described thus: AUC (0-t) in Sprague-Dawley rat plasma at 4.48 mg/kg, iv and measured upto 24 hrs in presence of 4-F-Eda by LC-MS/MS analysis. Format: ADME, organism-based. On the set-up: time < 24 hrs, dose 4.48 mg/kg, route iv.
The nature of data set [34]: AUC (0-infinity) in Sprague-Dawley rat plasma at 4.48 mg/kg, iv and measured upto 24 hrs in presence of 4-F-Eda by LC-MS/MS analysis. Format: ADME, organism-based. On the set-up: dose 4.48 mg/kg, time < 24 hrs, route iv.
Data set [35] in a line: AUMC (0-t) in Sprague-Dawley rat plasma at 4.48 mg/kg, iv and measured upto 24 hrs in presence of 4-F-Eda by LC-MS/MS analysis. Format: ADME, organism-based. Particulars: in vivo.
Data set [36] in a line: AUMC (0-infinity) in Sprague-Dawley rat plasma at 4.48 mg/kg, iv and measured upto 24 hrs in presence of 4-F-Eda by LC-MS/MS analysis. Format: ADME, organism-based. Particulars: in vivo.
Data set [37] in a line: Clearance in Sprague-Dawley rat plasma at 4.48 mg/kg, iv and measured upto 24 hrs in presence of 4-F-Eda by LC-MS/MS analysis. Format: ADME, organism-based.
A short description of data set [38]: MRT in Sprague-Dawley rat plasma at 4.48 mg/kg, iv and measured upto 24 hrs in presence of 4-F-Eda by LC-MS/MS analysis. Format: ADME, organism-based.
Data set [39] is described as follows: Volume of distribution at steady state in Sprague-Dawley rat plasma at 4.48 mg/kg, iv and measured upto 24 hrs in presence of 4-F-Eda by LC-MS/MS analysis. Format: ADME, organism-based. The note with it: read-out: Vdss.

Calls of active or inactive are those of the source. No cut-off for these calls is given here.

In general, half-life refers to the time in which the quantity being followed falls by half. By Cmax is commonly meant the peak of the concentration-time curve. Broadly, the AUC(0-t) is exposure summed from dosing to a finite time, without extrapolation to infinity. In general, AUC(0-inf) refers to total exposure, with the tail of the curve extrapolated. A word on the clearance: it is a measure of how efficiently the substance is removed, as volume per time. One may read the MRT as the average time that molecules of a dose stay in the body.

Regarding `CCCC[C@H](OC(C)=O)c1ccccc1C(=O)O`, the outcome with Rattus norvegicus [1], in the data set on Rattus norvegicus [2] and with Rattus norvegicus [7] was Active. The Activity result is “Non-Toxic” in [3], “Non-Toxic” in data set [4], 12.67% with Rattus norvegicus [5] and 68.37% in the data set with Rattus norvegicus [6].

Turning to `CCCCC(OC(C)=O)c1ccccc1C(=O)Oc1cc(C)nn1-c1ccc(F)cc1` (racemic), the result in the data set with Rattus norvegicus [8] was Active. Also, the Activity result in data set [9] is “Non-Toxic”; with Rattus norvegicus [10], 66.89%; with Rattus norvegicus [11] it was 52.8%; in the data set on Rattus norvegicus [12], 61.77%.

For `CCCC[C@@H](OC(C)=O)c1ccccc1C(=O)Oc1cc(C)nn1-c1ccc(F)cc1`, the result with Rattus norvegicus [8] and with Rattus norvegicus [13] was Active. Moreover, the Activity entry in [9] was “Non-Toxic”; in the data set with Rattus norvegicus [10] it was 67.56%.

In the case of `CCCC[C@@H]1OC(=O)c2ccccc21` [(3S)-BUTYLPHTHALIDE], the result in the data set with Rattus norvegicus [14] and with Rattus norvegicus [17] was Active. Further, the figures for the Activity entry (in [15]; in the data set on Rattus norvegicus [16]) were “Non-Toxic” and 57.7%, respectively. Besides, the k el at 24 h in data set [18] is 0.000202 s⁻¹; in data set [29], 4.06e-05 s⁻¹. Further, the half-life in [19] was 0.97 h; in data set [30], 5.05 h. Besides, the Cmax in data set [20] worked out at 3290 ng/mL; in data set [31] it was 6920 ng/mL. For the same compound, the C0 at 24 h in data set [21] is 5310 ng/mL; in data set [32], 13000 ng/mL. Besides, the AUC(0-t) at 24 h is 1470 ng·h/mL in data set [22] and 2840 ng·h/mL in [33]. Besides, the AUC(0-inf) was 1480 ng·h/mL in [23] and 2870 ng·h/mL in [34]. Moreover, the AUMCt is 943 hr.hr.ng/ml in data set [24] and 3819 hr.hr.ng/ml in [35]. Besides, the figures for the AUMC in [25] and in data set [36] were 998 hr.hr.ng/ml and 5006 hr.hr.ng/ml, respectively. The clearance amounted to 51.1 mL/min/kg in [26] and 26.3 mL/min/kg in [37]. The MRT was 0.678 h in data set [27] and 1.74 h in data set [38]. For the same compound, the Vd in [28] amounted to 2.08 L/kg; in data set [39], 2.73 L/kg.
